Where two headings read alike, the source gives them in different places.
Columns and labels:
Assay type in all cases: biochemical
LATS1 = biological target: T1, LATS1 (Homo sapiens, UniProt O95835); experiment: RBC HotSpot kinase assay (33P-ATP, P81 filter-binding), LATS1; details: read-out: LATS1 IC50
T1 sequence (O95835 1-1130): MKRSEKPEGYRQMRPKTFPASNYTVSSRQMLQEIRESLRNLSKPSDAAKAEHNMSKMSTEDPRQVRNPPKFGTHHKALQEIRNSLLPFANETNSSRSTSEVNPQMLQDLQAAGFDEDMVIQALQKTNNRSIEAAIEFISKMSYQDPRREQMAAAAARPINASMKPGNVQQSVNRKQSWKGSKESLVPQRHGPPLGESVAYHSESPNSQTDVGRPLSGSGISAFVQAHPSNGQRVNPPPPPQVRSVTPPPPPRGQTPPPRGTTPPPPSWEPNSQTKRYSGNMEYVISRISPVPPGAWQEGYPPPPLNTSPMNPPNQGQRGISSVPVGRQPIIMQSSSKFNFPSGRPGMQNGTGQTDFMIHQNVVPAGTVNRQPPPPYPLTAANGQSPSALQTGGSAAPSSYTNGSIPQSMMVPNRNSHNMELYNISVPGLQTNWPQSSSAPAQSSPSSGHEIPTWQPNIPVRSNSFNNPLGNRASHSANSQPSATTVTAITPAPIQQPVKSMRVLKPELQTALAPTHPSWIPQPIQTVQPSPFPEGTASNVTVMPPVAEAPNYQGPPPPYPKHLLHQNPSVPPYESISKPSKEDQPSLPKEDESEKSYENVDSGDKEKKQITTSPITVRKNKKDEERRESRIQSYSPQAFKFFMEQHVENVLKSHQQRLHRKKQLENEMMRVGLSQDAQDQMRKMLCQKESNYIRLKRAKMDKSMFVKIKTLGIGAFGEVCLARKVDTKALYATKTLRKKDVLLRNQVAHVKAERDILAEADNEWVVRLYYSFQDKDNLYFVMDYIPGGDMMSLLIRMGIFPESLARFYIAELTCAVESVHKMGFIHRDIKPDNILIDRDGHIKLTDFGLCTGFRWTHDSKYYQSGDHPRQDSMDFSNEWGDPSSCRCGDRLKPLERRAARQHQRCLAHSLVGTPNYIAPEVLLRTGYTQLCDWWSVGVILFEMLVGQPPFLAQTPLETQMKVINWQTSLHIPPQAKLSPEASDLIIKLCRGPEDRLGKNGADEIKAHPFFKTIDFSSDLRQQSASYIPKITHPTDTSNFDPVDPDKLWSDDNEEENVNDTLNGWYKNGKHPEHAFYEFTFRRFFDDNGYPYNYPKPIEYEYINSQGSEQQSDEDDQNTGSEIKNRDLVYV
Summary of the method: (§1)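 Radiometric 33P-ATP kinase reaction in 20 mM Hepes pH 7.5, 10 mM MgCl2, 1 mM EGTA, 0.01% Brij35, 0.02 mg/ml BSA, 0.1 mM Na3VO4, 2 mM DTT, 1% DMSO. Compound preincubated with kinase and substrate 20 min, then 2 h at room temperature; P81 filter-binding read-out. IC50 (nM) from 10-point singlet curves.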

LATS2 = biological target: T2, LATS2 (Homo sapiens, UniProt Q9NRM7); experiment: RBC HotSpot kinase assay (33P-ATP, P81 filter-binding), LATS2; details: read-out: LATS2 IC50
T2 sequence (Q9NRM7 1-1088): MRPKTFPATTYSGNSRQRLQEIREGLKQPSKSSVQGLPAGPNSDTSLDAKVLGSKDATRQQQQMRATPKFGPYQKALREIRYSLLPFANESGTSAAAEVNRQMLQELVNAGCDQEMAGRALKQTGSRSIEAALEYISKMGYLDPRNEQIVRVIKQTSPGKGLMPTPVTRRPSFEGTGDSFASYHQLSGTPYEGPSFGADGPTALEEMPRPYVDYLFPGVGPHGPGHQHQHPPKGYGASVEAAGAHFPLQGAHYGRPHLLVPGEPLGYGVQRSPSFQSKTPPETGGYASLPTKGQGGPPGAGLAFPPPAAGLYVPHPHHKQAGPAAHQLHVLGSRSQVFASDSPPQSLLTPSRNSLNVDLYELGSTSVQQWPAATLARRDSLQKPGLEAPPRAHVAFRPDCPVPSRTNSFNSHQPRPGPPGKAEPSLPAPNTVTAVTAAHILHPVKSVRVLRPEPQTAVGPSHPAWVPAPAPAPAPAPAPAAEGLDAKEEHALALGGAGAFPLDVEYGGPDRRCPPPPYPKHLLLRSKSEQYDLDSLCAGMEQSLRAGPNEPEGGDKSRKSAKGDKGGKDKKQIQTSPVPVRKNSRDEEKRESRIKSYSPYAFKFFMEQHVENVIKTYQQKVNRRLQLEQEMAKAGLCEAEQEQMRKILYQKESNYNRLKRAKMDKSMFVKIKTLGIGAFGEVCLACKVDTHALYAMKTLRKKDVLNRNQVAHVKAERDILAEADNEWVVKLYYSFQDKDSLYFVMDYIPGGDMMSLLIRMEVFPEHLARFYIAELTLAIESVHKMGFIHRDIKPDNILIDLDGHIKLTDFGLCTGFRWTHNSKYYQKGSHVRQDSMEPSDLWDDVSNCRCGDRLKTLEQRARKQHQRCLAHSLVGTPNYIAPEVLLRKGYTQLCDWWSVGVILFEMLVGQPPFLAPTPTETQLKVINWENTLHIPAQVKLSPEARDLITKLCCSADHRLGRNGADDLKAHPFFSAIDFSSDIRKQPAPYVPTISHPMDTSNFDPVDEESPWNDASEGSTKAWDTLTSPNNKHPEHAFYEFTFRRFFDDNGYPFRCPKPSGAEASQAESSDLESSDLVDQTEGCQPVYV
Summary of the method: as §1

AKT = AKT (Homo sapiens, UniProt P31749); experiment: RBC HotSpot kinase assay (33P-ATP, P81 filter-binding), AKT; details: read-out: AKT IC50
Summary of the method: as §1

[1] = Table 28, biochemical kinase assay
[2] = Table 32, biochemical kinase assay

AKT, sequence (P31749 whole entry): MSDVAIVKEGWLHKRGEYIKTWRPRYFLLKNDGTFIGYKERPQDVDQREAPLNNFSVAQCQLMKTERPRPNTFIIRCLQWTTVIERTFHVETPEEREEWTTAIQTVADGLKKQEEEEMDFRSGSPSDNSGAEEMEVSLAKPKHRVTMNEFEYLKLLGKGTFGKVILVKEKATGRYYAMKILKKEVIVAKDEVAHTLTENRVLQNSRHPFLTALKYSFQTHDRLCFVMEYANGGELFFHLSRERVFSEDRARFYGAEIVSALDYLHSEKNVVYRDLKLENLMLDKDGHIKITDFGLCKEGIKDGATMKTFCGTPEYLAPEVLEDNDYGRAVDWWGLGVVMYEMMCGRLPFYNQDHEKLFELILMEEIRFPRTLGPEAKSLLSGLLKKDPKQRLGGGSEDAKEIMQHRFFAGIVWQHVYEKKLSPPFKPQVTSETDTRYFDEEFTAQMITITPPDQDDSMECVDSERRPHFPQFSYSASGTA

Compound	IC50 (LATS1; [1])	IC50 (LATS2; [1])	IC50 (AKT; [1])	IC50 (LATS1; [2])	IC50 (LATS2; [2])	IC50 (AKT; [2])
CNCC(=O)N1C[C@@H](C)C(O)(c2c(F)cc(-c3ccnc4[nH]cc(F)c34)cc2F)[C@@H](C)C1 (stereo partly drawn) [Compound 83, 1-((3S,5R)-4-(2,6-difluoro-4-(3-fluoro-1H-pyrrolo[2,3-b]pyridin-4-yl)phenyl)-4-hydroxy-3,5-dimethylpiperidin-1-yl)-2-(methylamino) ethan-1-one]	25 nM	21.3 nM	570 nM			
CC1CNCCC1(O)c1ccc(-c2ccnc3[nH]cc(F)c23)cc1Cl (stereo not drawn) [Compound 99, 4-(2-chloro-4-(3-fluoro-1H-pyrrolo[2,3-b]pyridin-4-yl)phenyl)-3-methylpiperidin-4-ol]	10.6 nM	6.2 nM	219 nM			
OC1(c2ccc(-c3ccnc4[nH]cc(F)c34)cc2Cl)CCN2CCCC2C1 (stereo not drawn) [Compound 96, 7-(2-chloro-4-(3-fluoro-1H-pyrrolo[2,3-b]pyridin-4-yl)phenyl)octahydroindolizin-7-ol]	17 nM	17.9 nM	771 nM			
CC(=O)NCC(O)(c1ccc(Cl)cc1)c1ccc(-c2ccnc3[nH]ccc23)cc1 (stereo not drawn) [Compound 1014, N-(2-(4-(1H-pyrrolo[2,3-b]pyridin-4-yl)phenyl)-2-(4-chlorophenyl)-2-hydroxyethyl)acetamide]				3.7 nM	5.1 nM	17.2 nM
COCCN1CCC(c2ccc(-c3ccnc4[nH]cc(F)c34)cc2Cl)CC1 [Compound 158, 4-(3-chloro-4-(1-(2-methoxyethyl)piperidin-4-yl)phenyl)-3-fluoro-1H-pyrrolo[2,3-b]pyridine]	29 nM	56 nM	1150 nM			
CCN(CC)c1cc(-c2ccnc3[nH]ccc23)ccc1CNC(C)=O [Compound 236, N-(2-(diethylamino)-4-(1H-pyrrolo[2,3-b]pyridin-4-yl)benzyl)acetamide]	772 nM	887 nM	3590 nM			
FC(F)(F)Oc1cccc(CNCc2ccc(-c3ccnc4[nH]ccc34)cc2)c1 [Compound 285, N-(4-(1H-pyrrolo[2,3-b]pyridin-4-yl)benzyl)-1-(3-(trifluoromethoxy)phenyl) methanamine]	167 nM	191 nM	1990 nM			
COC(=O)c1c[nH]c2nccc(-c3ccc(C(C)(C)N)cc3)c12 [Compound 212, methyl 4-(4-(2-aminopropan-2-yl)phenyl)-1H-pyrrolo[2,3-b]pyridine-3-carboxylate]	12 nM	13 nM	1250 nM			
OC1(c2ccc(-c3ccnc4[nH]cc(F)c34)cc2)CNC1 [Compound 116, 3-(4-(3-fluoro-1H-pyrrolo[2,3-b]pyridin-4-yl)phenyl)azetidin-3-ol]	9.2 nM	16.7 nM	468 nM			
c1cncc(-c2cc(-c3ccnc4[nH]ccc34)ccc2C2CCNCC2)c1 [Compound 154, 4-(4-(piperidin-4-yl)-3-(pyridin-3-yl)phenyl)-1H-pyrrolo[2,3-b]pyridine]	87 nM	48 nM	1320 nM			
CC(C)(N)c1ccc(-c2ccnc3[nH]cc(Br)c23)cc1 [Compound 210, 2-(4-(3-bromo-1H-pyrrolo[2,3-b]pyridin-4-yl)phenyl)propan-2-amine]	24 nM	4.7 nM	331 nM			

More lines, now with the values ahead:

IC50 (LATS1; [1])	IC50 (LATS2; [1])	IC50 (AKT; [1])	IC50 (LATS1; [2])	IC50 (LATS2; [2])	IC50 (AKT; [2])	Compound
4.1 nM	1.3 nM	1420 nM				Cc1cc(-c2ccnc3[nH]cc(-c4cccnc4)c23)cc(F)c1[C@@]1(O)[C@H](C)CN(C(=O)CN)C[C@@H]1C [Compound 318, 2-amino-1-((3S,4s,5R)-4-(2-fluoro-6-methyl-4-(3-(pyridin-3-yl)-1H-pyrrolo[2,3-b]pyridin-4-yl)phenyl)-4-hydroxy-3,5-dimethylpiperidin-1-yl)ethan-1-one]
8.7 nM	3.2 nM	1180 nM				Cc1cc(-c2ccnc3[nH]cc(F)c23)cc(F)c1[C@@]1(O)[C@H](C)CN(C(=O)[C@@H]2C[C@H](F)CN2)C[C@@H]1C [Compound 65, ((3S,4R,5R)-4-(2-fluoro-4-(3-fluoro-1H-pyrrolo[2,3-b]pyridin-4-yl)-6-methylphenyl)-4-hydroxy-3,5-dimethylpiperidin-1-yl)((2S,4S)-4-fluoropyrrolidin-2-yl)methanone]
5.6 nM	35.5 nM	281 nM				CC(C)c1cc(-c2ccnc3[nH]ccc23)ccc1CN [Compound 233, (2-isopropyl-4-(1H-pyrrolo[2,3-b]pyridin-4-yl)phenyl) methanamine]
8.5 nM	3.4 nM	677 nM				Cc1cc(-c2ccnc3[nH]cc(F)c23)cc(F)c1[C@@]1(O)[C@H](C)CN(C(=O)[C@@H]2CCCN2)C[C@@H]1C [Compound 63, 4-(4-((3S,4R,5R)-1-(L-prolyl)-4-hydroxy-3,5-dimethylpiperidin-4-yl)-3-fluoro-5-methylphenyl)-3-fluoro-1H-pyrrolo[2,3-b]pyridine]
9.7 nM	6.7 nM	159 nM				C[C@@H]1CN(C)C[C@H](C)[C@@]1(O)c1ccc(-c2ccnc3[nH]cc(F)c23)cc1F [Compound 42, (3R,4s,5S)-4-(2-fluoro-4-(3-fluoro-1H-pyrrolo[2,3-b]pyridin-4-yl)phenyl)-1,3,5-trimethylpiperidin-4-ol]
4.2 nM	3.1 nM	206 nM				Cc1cc(-c2ccnc3[nH]cc(Cl)c23)cc(F)c1[C@@]1(O)[C@H](C)CN(C2CCS(=O)(=O)CC2)C[C@@H]1C [Compound 307, 4-((3S,4s,5R)-4-(4-(3-chloro-1H-pyrrolo[2,3-b]pyridin-4-yl)-2-fluoro-6-methylphenyl)-4-hydroxy-3,5-dimethylpiperidin-1-yl)tetrahydro-2H-thiopyran 1,1-dioxide]
6.9 nM	3.6 nM	1040 nM				COC(=O)c1c[nH]c2nccc(-c3ccc([C@@]4(O)[C@H](C)CN(C(=O)CN)C[C@@H]4C)c(C)c3)c12 [Compound 311, methyl 4-(4-((3S,4s,5R)-1-glycyl-4-hydroxy-3,5-dimethylpiperidin-4-yl)-3-methylphenyl)-1H-pyrrolo[2,3-b]pyridine-3-carboxylate]

— US20250361230A1, “LATS Inhibitors and Uses Thereof” (The USA, as Represented by the Secretary, Dept. of Heath …, priority 2022, published 2025)
